Test results taken from ChEMBL document CHEMBL1201862, “PubChem BioAssay data set” (2004).
Active and inactive are the calls of the source.

How the values were obtained:
Cytochrome P450 3A4 = Cytochrome P450 3A4 (Homo sapiens, UniProt P08684); conditions: Potency;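 note: confirmatory qHTS run detecting inhibitors and substrates of CYP3A4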
[1] = biological target: T1, Small ubiquitin-related modifier 1 (Homo sapiens, UniProt P63165); experiment: inhibitors of SUMO1 partner interactions, dose response, biochemical, FRET (AID 624383); assay type: functional; conditions: read-out: IC50_Mean
T1 sequence (P63165 whole entry): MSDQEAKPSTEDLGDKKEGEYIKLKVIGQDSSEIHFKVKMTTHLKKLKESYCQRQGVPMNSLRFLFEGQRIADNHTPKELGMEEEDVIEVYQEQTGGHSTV

[2] = biological target: Eukaryotic translation initiation factor 4E (Mus musculus, UniProt P63073); experiment: eIF4E–eIF4G protein interaction inhibitors, dose response, biochemical, TR-FRET (AID 855); assay type: functional;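 note: potency for disrupting eIF4E binding to eIF4GI seen as loss of FRET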
Chain of Eukaryotic translation initiation factor 4E (P63073 whole entry): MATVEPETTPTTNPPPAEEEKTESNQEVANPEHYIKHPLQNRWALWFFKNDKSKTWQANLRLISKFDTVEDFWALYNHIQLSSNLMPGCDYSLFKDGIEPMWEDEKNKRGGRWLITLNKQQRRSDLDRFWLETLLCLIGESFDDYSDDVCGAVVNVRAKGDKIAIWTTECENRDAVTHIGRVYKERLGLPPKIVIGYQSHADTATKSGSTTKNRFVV

[3] = biological target: NAD-dependent protein deacylase sirtuin-5, mitochondrial (Homo sapiens, UniProt Q9NXA8); experiment: SIRT5 desuccinylase inhibitors, dose response, biochemical, fluorescence imaging, cherry-pick, set 5 (AID 720591);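 note: desuccinylation of succinyl peptide AMC substrate read as fluorescence after trypsin release; potency of inhibitors that lower fluorescence and may act on trypsin instead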
Chain of NAD-dependent protein deacylase sirtuin-5, mitochondrial (Q9NXA8 whole entry): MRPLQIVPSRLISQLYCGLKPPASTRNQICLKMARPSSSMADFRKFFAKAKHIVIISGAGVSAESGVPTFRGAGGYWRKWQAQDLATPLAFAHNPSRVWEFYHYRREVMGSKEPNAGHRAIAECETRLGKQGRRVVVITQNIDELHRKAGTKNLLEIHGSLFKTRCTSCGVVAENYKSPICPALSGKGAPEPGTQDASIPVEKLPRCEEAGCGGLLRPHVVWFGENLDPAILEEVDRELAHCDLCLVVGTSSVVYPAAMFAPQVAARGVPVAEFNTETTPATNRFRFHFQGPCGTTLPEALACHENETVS

[4] = biological target: T1, Small ubiquitin-related modifier 1; experiment: inhibitors of SUMO1 peptide binding, dose response, biochemical, fluorescence polarization, uHTS hits (AID 624382); assay type: functional; conditions: read-out: IC50_Mean
BJ [5] = experiment: cytotoxicity toward BJ-TERT-LT-ST fibroblasts, dose response, cell-based, RAS-independent, luminescence (AID 1935); assay type: functional; conditions: Homo sapiens;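 note: BJ fibroblasts immortalized with TERT plus LT and ST oncogenes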
[6] = cytotoxicity toward DRD oncogenic fibroblasts, dose response, cell-based, non-viral oncogenic, luminescence (AID 1934); assay type: functional; conditions: Homo sapiens
[7] = biological target: Luciferin 4-monooxygenase (Photinus pyralis, UniProt P08659); experiment: firefly luciferase enzyme inhibitors, dose response, biochemical, luminescence (AID 1891)
BJ [8] = experiment: cells; assay type: functional, cell-based; conditions: Homo sapiens
[9] = Luminescence Cell-Based Dose Confirmation HTS to Identify Inhibitors of Platelet Dense Granule Release. [Related pubchem assays: 1663 (Primary HTS), 1678 (Summary of Project)]; assay type: functional
BJ [10] = experiment: cytotoxicity toward BJ-TERT fibroblasts, dose response, cell-based, RAS-independent, luminescence (AID 1933); assay type: functional; conditions: Homo sapiens
[11] = biological target: Peroxisome proliferator-activated receptor gamma/Nuclear receptor coactivator 1 (Homo sapiens, UniProt P37231); assay type: functional;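 note: agonist potency as compounds enhance coactivator SRC-1 recruitment to PPARgamma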
Chain of Peroxisome proliferator-activated receptor gamma/Nuclear receptor coactivator 1 (P37231 whole entry): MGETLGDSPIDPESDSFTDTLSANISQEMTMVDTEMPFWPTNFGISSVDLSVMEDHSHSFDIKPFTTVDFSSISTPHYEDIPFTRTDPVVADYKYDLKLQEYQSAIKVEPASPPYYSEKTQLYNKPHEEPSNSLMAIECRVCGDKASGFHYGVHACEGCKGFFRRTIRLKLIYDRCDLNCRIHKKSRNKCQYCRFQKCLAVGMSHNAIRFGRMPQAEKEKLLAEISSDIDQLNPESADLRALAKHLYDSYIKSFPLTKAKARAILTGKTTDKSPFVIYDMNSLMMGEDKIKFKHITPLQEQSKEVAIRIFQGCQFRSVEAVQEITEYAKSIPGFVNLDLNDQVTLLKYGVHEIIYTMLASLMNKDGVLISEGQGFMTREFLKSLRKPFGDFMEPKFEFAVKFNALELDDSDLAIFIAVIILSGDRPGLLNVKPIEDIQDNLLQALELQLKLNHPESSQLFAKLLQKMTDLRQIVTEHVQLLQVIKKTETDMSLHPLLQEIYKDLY
Chain of Peroxisome proliferator-activated receptor gamma/Nuclear receptor coactivator 1 (Q15788 whole entry, further chain): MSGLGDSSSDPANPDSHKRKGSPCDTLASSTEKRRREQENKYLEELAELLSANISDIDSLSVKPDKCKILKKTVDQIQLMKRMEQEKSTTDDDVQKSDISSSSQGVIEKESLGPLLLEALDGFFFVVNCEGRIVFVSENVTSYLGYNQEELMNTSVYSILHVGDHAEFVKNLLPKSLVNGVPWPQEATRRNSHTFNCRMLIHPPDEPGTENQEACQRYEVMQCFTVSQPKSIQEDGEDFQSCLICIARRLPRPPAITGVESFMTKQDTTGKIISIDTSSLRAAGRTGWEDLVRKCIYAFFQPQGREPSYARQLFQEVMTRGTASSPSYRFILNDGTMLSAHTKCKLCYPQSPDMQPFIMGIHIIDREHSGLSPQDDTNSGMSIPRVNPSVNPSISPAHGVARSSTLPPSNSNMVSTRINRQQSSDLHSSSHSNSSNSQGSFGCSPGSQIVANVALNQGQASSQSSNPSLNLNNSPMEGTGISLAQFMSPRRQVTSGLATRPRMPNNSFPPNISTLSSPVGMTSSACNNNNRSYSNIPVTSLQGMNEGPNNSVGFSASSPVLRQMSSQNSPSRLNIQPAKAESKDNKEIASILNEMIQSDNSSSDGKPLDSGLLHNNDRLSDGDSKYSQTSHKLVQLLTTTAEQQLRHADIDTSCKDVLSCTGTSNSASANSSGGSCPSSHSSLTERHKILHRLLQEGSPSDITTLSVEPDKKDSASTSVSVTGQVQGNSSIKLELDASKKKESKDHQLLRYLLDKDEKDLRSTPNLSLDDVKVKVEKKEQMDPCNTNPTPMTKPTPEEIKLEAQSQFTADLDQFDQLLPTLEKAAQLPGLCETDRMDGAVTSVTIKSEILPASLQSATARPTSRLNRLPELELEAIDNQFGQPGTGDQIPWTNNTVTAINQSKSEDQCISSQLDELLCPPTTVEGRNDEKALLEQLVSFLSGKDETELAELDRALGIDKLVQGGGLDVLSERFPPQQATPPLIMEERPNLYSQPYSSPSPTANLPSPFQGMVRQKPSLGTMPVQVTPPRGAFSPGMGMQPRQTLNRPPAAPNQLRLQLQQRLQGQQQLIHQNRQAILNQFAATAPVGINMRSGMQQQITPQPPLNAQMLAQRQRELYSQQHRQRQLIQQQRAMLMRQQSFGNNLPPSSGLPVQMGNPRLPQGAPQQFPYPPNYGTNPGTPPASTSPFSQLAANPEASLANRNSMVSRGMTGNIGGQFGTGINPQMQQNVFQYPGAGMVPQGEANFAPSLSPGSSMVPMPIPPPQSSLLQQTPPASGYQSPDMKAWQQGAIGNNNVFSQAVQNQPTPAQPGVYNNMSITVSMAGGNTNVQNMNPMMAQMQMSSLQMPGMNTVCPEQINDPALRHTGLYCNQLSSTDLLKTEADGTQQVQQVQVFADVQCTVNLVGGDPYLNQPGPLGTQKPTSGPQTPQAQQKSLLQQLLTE

[12] = biological target: Peroxisome proliferator-activated receptor gamma/Nuclear receptor coactivator 2 (Homo sapiens, UniProt P37231); assay type: functional;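 note: agonist potency for raising coactivator recruitment to the receptor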
Chain of Peroxisome proliferator-activated receptor gamma/Nuclear receptor coactivator 2 (P37231 whole entry): as the sequence (P37231 whole entry) above
Chain of Peroxisome proliferator-activated receptor gamma/Nuclear receptor coactivator 2 (Q15596 whole entry, further chain): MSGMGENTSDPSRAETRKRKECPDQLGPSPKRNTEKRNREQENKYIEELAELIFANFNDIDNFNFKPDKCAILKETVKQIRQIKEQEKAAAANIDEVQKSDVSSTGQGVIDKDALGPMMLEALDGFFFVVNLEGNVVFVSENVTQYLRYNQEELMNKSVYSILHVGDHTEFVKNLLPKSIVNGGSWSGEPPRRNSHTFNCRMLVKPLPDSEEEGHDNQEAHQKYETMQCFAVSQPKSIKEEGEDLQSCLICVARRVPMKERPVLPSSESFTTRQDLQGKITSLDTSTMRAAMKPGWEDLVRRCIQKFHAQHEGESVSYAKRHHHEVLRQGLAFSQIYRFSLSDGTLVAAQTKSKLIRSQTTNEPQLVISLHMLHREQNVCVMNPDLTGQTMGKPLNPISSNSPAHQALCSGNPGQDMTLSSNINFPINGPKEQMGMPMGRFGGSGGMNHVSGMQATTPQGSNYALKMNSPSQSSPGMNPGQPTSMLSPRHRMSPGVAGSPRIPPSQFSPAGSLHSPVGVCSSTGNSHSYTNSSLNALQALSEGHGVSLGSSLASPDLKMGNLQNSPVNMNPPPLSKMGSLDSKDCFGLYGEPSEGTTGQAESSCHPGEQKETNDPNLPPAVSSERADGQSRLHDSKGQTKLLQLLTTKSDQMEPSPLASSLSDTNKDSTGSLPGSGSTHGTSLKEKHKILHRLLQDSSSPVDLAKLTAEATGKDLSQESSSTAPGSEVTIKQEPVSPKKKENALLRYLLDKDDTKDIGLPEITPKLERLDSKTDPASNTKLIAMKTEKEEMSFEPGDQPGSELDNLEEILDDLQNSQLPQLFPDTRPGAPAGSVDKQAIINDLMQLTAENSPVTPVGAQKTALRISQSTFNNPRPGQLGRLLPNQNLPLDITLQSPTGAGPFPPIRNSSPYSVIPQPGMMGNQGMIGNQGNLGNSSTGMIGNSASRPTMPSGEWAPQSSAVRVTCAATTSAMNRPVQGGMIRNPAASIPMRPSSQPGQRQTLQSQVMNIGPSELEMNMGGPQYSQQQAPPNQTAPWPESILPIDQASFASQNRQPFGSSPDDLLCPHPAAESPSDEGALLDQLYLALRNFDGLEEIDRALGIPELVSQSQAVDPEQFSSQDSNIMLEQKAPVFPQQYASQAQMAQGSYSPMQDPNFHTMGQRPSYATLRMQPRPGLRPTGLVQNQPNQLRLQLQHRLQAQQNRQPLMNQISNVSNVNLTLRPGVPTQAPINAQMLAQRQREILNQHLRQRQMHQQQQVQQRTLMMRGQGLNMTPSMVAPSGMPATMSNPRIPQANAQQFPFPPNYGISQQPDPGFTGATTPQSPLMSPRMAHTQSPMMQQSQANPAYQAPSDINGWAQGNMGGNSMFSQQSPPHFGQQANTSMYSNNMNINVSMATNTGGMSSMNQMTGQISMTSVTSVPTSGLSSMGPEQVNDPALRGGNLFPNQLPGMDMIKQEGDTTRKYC

[13] = biological target: Peroxisome proliferator-activated receptor gamma/Nuclear receptor coactivator 3 (Homo sapiens, UniProt P37231); assay type: functional;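 note: agonist potency for raising coactivator recruitment to the receptor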
[14] = inhibitors of SNCA 5'UTR-driven reporter translation, confirmation, H4 neuroglioma cells, luminescence (AID 1988); assay type: functional, cell-based
[15] = biological target: T2, DNA repair protein RAD52 homolog (Homo sapiens, UniProt P43351); assay type: functional, biochemical
T2 sequence (P43351 whole entry): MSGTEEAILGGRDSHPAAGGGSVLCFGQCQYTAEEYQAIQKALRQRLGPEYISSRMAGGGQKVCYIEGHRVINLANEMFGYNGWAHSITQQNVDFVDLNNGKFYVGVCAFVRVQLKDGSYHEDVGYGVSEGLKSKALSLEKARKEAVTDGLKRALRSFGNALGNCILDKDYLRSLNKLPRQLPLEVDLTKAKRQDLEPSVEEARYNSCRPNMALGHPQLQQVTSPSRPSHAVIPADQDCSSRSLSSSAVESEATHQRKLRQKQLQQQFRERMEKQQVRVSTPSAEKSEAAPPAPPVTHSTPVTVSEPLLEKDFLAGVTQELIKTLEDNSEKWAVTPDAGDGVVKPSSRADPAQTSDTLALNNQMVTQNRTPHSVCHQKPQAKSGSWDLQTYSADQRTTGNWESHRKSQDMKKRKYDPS

[16] = inhibitors of firefly luciferase expression or activity, dose response, H4 neuroglioma cells, luminescence (AID 1990); assay type: functional, cell-based
[17] = Luminescence Cell-Based Dose Response HTS to Identify Inhibitors of 5'UTR Stem-Loop Driven Prion Protein mRNA Translation in H4 Neuroglioblastoma Cells. [Related pubchem assays: 1827 (Project Summary), 1813 (Primary HTS)]; assay type: functional
[18] = inhibitors of intracellular T. cruzi replication, confirmation, NIH3T3 host cells, beta-gal luminescence (AID 2044); assay type: functional, cell-based;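 note: intracellular parasites grown in NIH/3T3 mouse fibroblasts as host cells; luminescent beta-galactosidase reporter signal from transgenic T. cruzi replicating inside host cells; inhibitors lower the luminescence signal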
[19] = cytotoxicity toward NIH3T3 fibroblasts, dose response, counter-screen, cell-based, ATP luminescence, mouse fibroblasts (AID 2010); assay type: functional;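 note: cells exposed to compound for about 90 hours before reading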
[20] = biological target: Induced myeloid leukemia cell differentiation protein Mcl-1 (Homo sapiens, UniProt Q07820); assay type: functional
Cytochrome P450 2C9 = Cytochrome P450 2C9 (Homo sapiens, UniProt P11712)
Bcl-2-like protein 10 = biological target: T3, Bcl-2-like protein 10 (Homo sapiens, UniProt Q9HD36); experiment: displacers of TR3 peptide from Bcl-B, primary screen, selectivity assay for Bfl-1 inhibitor project, biochemical, fluorescence polarization, FITC-TR3 peptide (AID 748);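 note: fluorescence polarization from a fluorescein-labelled TR3 peptide binding purified Bcl-B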
T3 sequence (Q9HD36 whole entry): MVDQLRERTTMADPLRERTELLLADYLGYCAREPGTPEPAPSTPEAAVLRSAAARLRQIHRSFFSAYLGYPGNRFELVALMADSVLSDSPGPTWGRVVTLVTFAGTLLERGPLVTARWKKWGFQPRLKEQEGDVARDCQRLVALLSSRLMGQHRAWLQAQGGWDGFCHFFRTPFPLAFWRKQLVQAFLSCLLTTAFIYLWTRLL

fMet-Leu-Phe receptor = biological target: T4, fMet-Leu-Phe receptor (Homo sapiens, UniProt P21462); experiment: FPR ligands, dose response (AID 519); assay type: functional
T4 sequence (P21462 whole entry): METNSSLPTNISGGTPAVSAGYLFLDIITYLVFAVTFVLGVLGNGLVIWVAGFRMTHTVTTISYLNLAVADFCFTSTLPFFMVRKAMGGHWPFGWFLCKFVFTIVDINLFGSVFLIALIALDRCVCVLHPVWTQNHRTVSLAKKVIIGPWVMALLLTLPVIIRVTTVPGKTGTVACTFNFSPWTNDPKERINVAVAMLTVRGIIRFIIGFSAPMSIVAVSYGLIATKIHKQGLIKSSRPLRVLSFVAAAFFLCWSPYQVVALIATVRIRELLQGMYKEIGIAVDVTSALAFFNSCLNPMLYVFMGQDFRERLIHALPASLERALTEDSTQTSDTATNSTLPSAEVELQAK

[21] = biological target: T5, Rac GTPase-activating protein 1 (Homo sapiens, UniProt Q9H0H5); experiment: MgcRacGAP GTPase-activating activity inhibitors, confirmation, biochemical, ADP Hunter fluorescence, primary and confirmatory (AID 624330); assay type: functional
T5 sequence (Q9H0H5 whole entry): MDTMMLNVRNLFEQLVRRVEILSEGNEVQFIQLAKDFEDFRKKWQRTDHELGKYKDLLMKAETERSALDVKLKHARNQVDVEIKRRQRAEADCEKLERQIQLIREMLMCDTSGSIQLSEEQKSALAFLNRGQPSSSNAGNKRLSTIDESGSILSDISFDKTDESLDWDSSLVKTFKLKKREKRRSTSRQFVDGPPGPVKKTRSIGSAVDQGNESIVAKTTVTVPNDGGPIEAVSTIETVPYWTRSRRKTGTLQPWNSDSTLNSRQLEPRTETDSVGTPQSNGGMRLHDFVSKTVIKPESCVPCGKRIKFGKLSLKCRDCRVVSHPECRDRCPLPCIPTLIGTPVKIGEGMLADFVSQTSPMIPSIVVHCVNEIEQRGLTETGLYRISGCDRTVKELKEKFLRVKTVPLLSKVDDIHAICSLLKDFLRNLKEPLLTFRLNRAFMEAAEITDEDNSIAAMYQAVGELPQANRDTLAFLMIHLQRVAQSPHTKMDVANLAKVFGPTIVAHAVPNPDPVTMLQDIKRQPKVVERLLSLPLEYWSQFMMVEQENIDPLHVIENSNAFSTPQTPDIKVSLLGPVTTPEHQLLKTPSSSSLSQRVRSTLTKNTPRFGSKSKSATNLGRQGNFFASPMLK

[22] = biological target: T6, Carboxy-terminal domain RNA polymerase II polypeptide A small phosphatase 1 (Homo sapiens, UniProt Q9GZU7); experiment: inhibitors of CTDSP1, concentration-response testing, biochemical assay, absorbance-based, actives from ultra-high-throughput screening (AID 540297); assay type: functional
T6 sequence (Q9GZU7 whole entry): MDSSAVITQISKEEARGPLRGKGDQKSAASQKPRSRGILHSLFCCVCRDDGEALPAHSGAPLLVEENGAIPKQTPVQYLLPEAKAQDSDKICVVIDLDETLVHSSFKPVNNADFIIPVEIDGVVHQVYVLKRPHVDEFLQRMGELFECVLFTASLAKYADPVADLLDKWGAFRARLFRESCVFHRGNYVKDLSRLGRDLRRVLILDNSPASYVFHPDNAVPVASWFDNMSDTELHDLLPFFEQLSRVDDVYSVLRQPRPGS

[23] = P. falciparum ATP4 D1247Y mutant growth inhibitors, dose response, NITD609-resistant line, SYBR Green, dry powder (AID 1159571); assay type: functional, cell-based;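 note: parasites synchronized at ring stage by sorbitol before testing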
[24] = P. falciparum Dd2 growth inhibitors, dose response, SYBR Green, dry powder samples (AID 1159566); assay type: functional, cell-based;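 note: potency for growth inhibition with lower SYBR green DNA signal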
[25] = P. falciparum 3D7-ScDHODH growth inhibitors, dose response, SYBR Green, dry powder samples (AID 1159570); assay type: functional, cell-based;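 note: parasite growth measured after 72 hours of compound exposure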
[26] = P. falciparum Dd2 growth inhibitors, dose response, SYBR Green, cherry-picked samples (AID 1159567); assay type: functional, cell-based
[27] = HepG2 cell cytotoxicity, dose response, cytotoxicity control, cherry-picked samples (AID 1159577); assay type: functional, cell-based

Chain of Cytochrome P450 3A4 (P08684 whole entry): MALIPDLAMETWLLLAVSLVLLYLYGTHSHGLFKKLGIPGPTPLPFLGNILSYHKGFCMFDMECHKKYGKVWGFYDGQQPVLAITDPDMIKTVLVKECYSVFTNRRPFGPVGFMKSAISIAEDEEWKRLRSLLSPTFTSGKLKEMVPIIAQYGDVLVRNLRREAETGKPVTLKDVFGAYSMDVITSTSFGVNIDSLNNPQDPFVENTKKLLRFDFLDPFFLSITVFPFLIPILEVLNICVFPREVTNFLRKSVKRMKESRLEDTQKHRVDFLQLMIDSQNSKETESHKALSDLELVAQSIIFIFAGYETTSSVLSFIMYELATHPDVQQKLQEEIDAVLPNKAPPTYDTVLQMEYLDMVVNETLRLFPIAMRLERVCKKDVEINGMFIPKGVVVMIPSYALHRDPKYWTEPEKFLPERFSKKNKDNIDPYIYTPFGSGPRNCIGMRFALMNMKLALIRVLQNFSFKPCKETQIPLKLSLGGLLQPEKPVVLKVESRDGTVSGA

N#CCC(=O)NC(=O)NCC1CC1
AC50 (Cytochrome P450 3A4): 0.0126 µM (inconclusive)

COc1ccc(OC)c(-c2csc(NC(=O)Cn3[nH]c(=O)c4ccccc4c3=O)n2)c1
IC50 [1]: 100 µM (inactive)
IC50 [2]: 50 µM (inactive)
AC50 [3]: 28 µM (active)
IC50 [4]: > 66.6 µM (inactive)

Cc1ncsc1C(=O)Nc1nc2c(s1)CCCC2
EC50 (BJ [5]): > 150 µM (not active)
EC50 [6]: 20.9 µM (inconclusive)
EC50 [7]: 3.81 µM (active)
EC50 (BJ [8]): 20 µM (active)
EC50 [9]: 3.99 µM (active)
EC50 (BJ [10]): 18 µM (active)

CCc1ccc(N(C(=O)c2csnn2)C(C(=O)NC(C)(C)C)c2cccnc2)cc1 (centres undefined)
EC50 [11]: > 79.4 µM (not active)
EC50 [12]: > 79.4 µM (not active)
EC50 [13]: > 79.4 µM (not active)

CCn1cc(S(=O)(=O)Nc2ccccc2C(F)(F)F)cn1
EC50 [11]: > 79.4 µM (not active)
EC50 [12]: > 79.4 µM (not active)
EC50 [13]: > 79.4 µM (not active)

CN1CCN(C2Cc3cc(Cl)ccc3Sc3cc(F)ccc32)CC1 (centres undefined)
EC50 [14]: 8.62 µM (active)
AC50 [15]: 18.1 µM (active)
EC50 [16]: > 120 µM (not active)
EC50 [17]: > 120 µM (not active)

c1nc[nH]n1
AC50 (Cytochrome P450 3A4): 31.6 µM (inconclusive)

CN(C)CCCN(C(=O)c1ccc(N2C(=O)CCC2=O)cc1)c1nc2c(F)cccc2s1
EC50 [18]: 0.471 µM (active)
EC50 [11]: > 79.4 µM (not active)
EC50 [19]: > 30 µM (not active)
EC50 [12]: > 79.4 µM (not active)
EC50 [13]: > 79.4 µM (not active)

O=C(COC(=O)c1ccc2c(c1)C(=O)N(Cc1ccncc1)C2=O)Nc1ccccc1[N+](=O)[O-]
IC50 [20]: 4.84 µM (active)

Cc1ccc(-n2nc3ccc(NC(=O)c4ccc5c(c4)OCO5)cc3n2)cc1
AC50 (Cytochrome P450 2C9): 4.47 µM (inconclusive)
IC50 (Bcl-2-like protein 10): 73.3 µM (inactive)

COC(=O)C1=[N+]([O-])OC(C(=O)OC)C1c1c[nH]c2ccccc12 (centres undefined)
Ki (fMet-Leu-Phe receptor): > 66.7 µM (inactive)

COC(=O)[C@@H]1C[C@H]2CC[C@H](O)C[C@H]2N1CC1CC1
AC50 (Cytochrome P450 3A4): 20 µM (inconclusive)

CCN1CCN(c2ccc(N)c(C)c2)CC1
IC50 [21]: 48.3 µM (active)
AC50 [15]: 3.46 µM (active)

COc1ccc(S(=O)(=O)N2CCOCC2)cc1NC(=O)CSc1n[nH]c(C(C)C)n1
AC50 [3]: > 30 µM (inactive)

COc1ccc(S(=O)(=O)N2CCOc3ccccc32)cc1
EC50 (BJ [5]): 10.3 µM (inconclusive)
EC50 [6]: 13.1 µM (inconclusive)
EC50 (BJ [8]): 55.9 µM (inconclusive)
EC50 (BJ [10]): 14 µM (active)

CCN(C(=O)Cc1c(C(=O)O)[nH]c2ccccc12)c1cc(OC)ccc1OC
Ki (fMet-Leu-Phe receptor): 18.4 µM (inactive)

CCN(CC)C(=O)CSc1nc2ncccc2[nH]1
EC50 [11]: > 79.4 µM (not active)
EC50 [12]: > 79.4 µM (not active)
EC50 [13]: > 79.4 µM (not active)

O=C(Nc1ccc(Nc2ccccc2)cc1)c1ccc(Br)o1
Ki (fMet-Leu-Phe receptor): > 66.7 µM (inactive)

CSc1ccccc1NC(=O)COC(=O)CCC(=O)c1ccc(F)cc1
AC50 [3]: > 30 µM (inactive)

O=C(N/N=C/c1ccco1)c1cccc(N2Cc3ccccc3C2)c1
IC50 [22]: 4.27 µM (active)
IC50 [20]: 3.75 µM (active)

C[C@H](CO)N1C[C@H](C)[C@H](CN(C)S(=O)(=O)c2ccc([N+](=O)[O-])cc2)OCc2ccccc2-c2c(n(C)c3ccccc23)C1=O
AC50 [23]: 0.308 µM (active)
AC50 [24]: 0.305 µM (active)
AC50 [25]: 0.476 µM (active)
AC50 [26]: 1 µM (active)

CCc1csc(N2[C@H](C#N)[C@H](c3ccccc3-c3ccc(F)cc3)[C@H]2CO)n1
AC50 [23]: 5.46 µM (active)
AC50 [24]: 0.989 µM (active)
AC50 [25]: 1.13 µM (active)
AC50 [26]: 2.65 µM (active)

COc1ccc2c3c([nH]c2c1)[C@@H](CO)N(C(=O)CN(C)C)CC31CN(CC2CCCC2)C1
AC50 [26]: 2.12 µM (active)
AC50 [27]: 13.8 µM (active)

Nc1ccc(-c2ccc(N)cc2)cc1 [BENZIDINE]
IC50 [21]: 7.39 µM (active)
AC50 (Cytochrome P450 3A4): 25.1 µM (inconclusive)
